Results taken from US20260092061A1, “COMPOUNDS FOR TARGETED PROTEIN DEGRADATION” (Amphista Therapeutics Limited, priority 2022, published 2026).

Target: T1, BRD9 (Homo sapiens, UniProt Q9H8M2)
T1 sequence (Q9H8M2 1-597): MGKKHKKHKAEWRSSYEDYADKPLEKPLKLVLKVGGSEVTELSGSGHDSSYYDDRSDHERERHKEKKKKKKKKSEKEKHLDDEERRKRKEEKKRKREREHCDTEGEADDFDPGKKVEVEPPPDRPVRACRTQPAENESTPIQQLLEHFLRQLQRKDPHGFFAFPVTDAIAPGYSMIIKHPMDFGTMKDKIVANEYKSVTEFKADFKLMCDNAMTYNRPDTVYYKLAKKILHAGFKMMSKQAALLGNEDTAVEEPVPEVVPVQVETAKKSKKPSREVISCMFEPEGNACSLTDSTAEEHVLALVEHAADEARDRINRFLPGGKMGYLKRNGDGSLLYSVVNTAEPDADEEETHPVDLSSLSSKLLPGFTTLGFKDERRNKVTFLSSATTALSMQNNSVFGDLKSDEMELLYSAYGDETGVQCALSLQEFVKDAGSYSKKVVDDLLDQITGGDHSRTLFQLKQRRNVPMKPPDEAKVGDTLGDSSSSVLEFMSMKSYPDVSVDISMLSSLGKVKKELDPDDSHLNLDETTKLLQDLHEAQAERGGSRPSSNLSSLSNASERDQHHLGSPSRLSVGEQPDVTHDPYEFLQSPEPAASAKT
Test: Degradation of BRD9 (IF), immunofluorescence in MV4-11 cells, 24 hours (Assay Protocol 2)
Assay type: cell-based
Parameters: A suspension of MV4-11 cells (ATCC CRL-9591) was prepared; host or cells: MV4-11
Settings: BRD9 degradation; for DC50: Assay protocol 2, read-out: DC50; for Dmax: MV4-11, Assay protocol 2, read-out: Dmax
How it was run: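 MV4-11 cells treated with compound 24 h at 37° C., then fixed, permeabilised and immunostained for BRD9 (anti-BRD9 E4Q3F, Alexa 647 secondary, Hoechst counterstain). High-content imaging quantified nuclear BRD9 signal; % BRD9 remaining normalised to DMSO and 100 nM CFT-8634 controls.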

SMILES	DC50 [nM]	Dmax [%]
COc1cc(-c2cn(C)c(=O)c(C)c2C)cc(OC)c1CN1CCN(Cc2cccc3c2CCN(C(=O)/C(C#N)=C/C(C)(C)C)C3C)C(C(C)C)C1 (mixture of isomers) [Compound B136, (E/Z)-2-(5-((4-(2,6-dimethoxy-4-(1,4,5-trimethyl-6-oxo-1,6-dihydropyridin-3-yl)benzyl)-2-isopropylpiperazin-1-yl)methyl)-1-methyl-1,2,3,4-tetrahydroisoquinoline-2-carbonyl)-4,4-dimethylpent-2-enenitrile]	1.25 to 10	> 75
COc1cc(-c2cn(C)c(=O)c(C)c2C)cc(OC)c1CN1CCN(Cc2cccc3c2CCN(C(=O)/C(C#N)=C/C2CCOCC2)C3C)C2(CC2)C1 (mixture of isomers) [Compound B137, (E/Z)-2-(5-((7-(2,6-dimethoxy-4-(1,4,5-trimethyl-6-oxo-1,6-dihydropyridin-3-yl)benzyl)-4,7-diazaspiro[2.5]octan-4-yl)methyl)-1-methyl-1,2,3,4-tetrahydroisoquinoline-2-carbonyl)-3-(tetrahydro-2H-pyran-4-yl)acrylonitrile]	1.25 to 10	> 75
COc1cc(-c2cn(C)c(=O)c(C)c2C)cc(OC)c1CN1CCN(Cc2cccc3c2CCN(C(=O)/C(C#N)=C/C(C)(C)C(F)F)C3C)C2(CC2)C1 (mixture of isomers) [Compound B138, (E/Z)-2-(5-((7-(2,6-dimethoxy-4-(1,4,5-trimethyl-6-oxo-1,6-dihydropyridin-3-yl)benzyl)-4,7-diazaspiro[2.5]octan-4-yl)methyl)-1-methyl-1,2,3,4-tetrahydroisoquinoline-2-carbonyl)-5,5-difluoro-4,4-dimethylpent-2-enenitrile]	< 1.25	> 75
CC[C@@H]1CN(Cc2c(OC)cc(-c3cn(C)c(=O)c(C)c3C)cc2OC)CCN1Cc1cccc2c1CCN(C(=O)/C(C#N)=C/C(C)(C)C)C2C (mixture of isomers) [Compound B139, (E/Z)-2-(5-(((R)-4-(2,6-dimethoxy-4-(1,4,5-trimethyl-6-oxo-1,6-dihydropyridin-3-yl)benzyl)-2-ethylpiperazin-1-yl)methyl)-1-methyl-1,2,3,4-tetrahydroisoquinoline-2-carbonyl)-4,4-dimethylpent-2-enenitrile]	10 to 25	70 to 75
COc1cc(-c2cn(C)c(=O)c(C)c2C)cc(OC)c1CN1CCN(Cc2cccc3c2CCN(C(=O)/C(C#N)=C/C(C)(C)F)C3C)C2(CC2)C1 (mixture of isomers) [Compound B140, (E/Z)-2-[5-[[7-[[2,6-dimethoxy-4-(1,4,5-trimethyl-6-oxo-3-pyridyl)phenyl]methyl]-4,7-diazaspiro[2.5]octan-4-yl]methyl]-1-methyl-3,4-dihydro-1H-isoquinoline-2-carbonyl]-4-fluoro-4-methyl-pent-2-enenitrile]	< 1.25	> 75
COc1cc(-c2cn(C)c(=O)c(C)c2C)cc(OC)c1CN1CCN(Cc2cccc3c2CCN(C(=O)/C(C#N)=C\C24CC(OC)(C2)C4)C3C)C2(CC2)C1 (mixture of isomers) [Compound B141, (E/Z)-2-(5-((7-(2,6-dimethoxy-4-(1,4,5-trimethyl-6-oxo-1,6-dihydropyridin-3-yl)benzyl)-4,7-diazaspiro[2.5]octan-4-yl)methyl)-1-methyl-1,2,3,4-tetrahydroisoquinoline-2-carbonyl)-3-(3-methoxybicyclo[1.1.1]pentan-1-yl)acrylonitrile]	< 1.25	> 75
COc1cc(-c2cn(C)c(=O)c(C)c2C)cc(OC)c1CN1CCN(Cc2cccc3c2CCN(C(=O)/C(C#N)=C/C(C)(C)C)C3C)CC1=O (mixture of isomers) [Compound B142]	1.25 to 10	> 75
COc1cc(-c2cn(C)c(=O)c(C)c2C)cc(OC)c1CN1CCN(Cc2cccc3c2CCN(C(=O)/C(C#N)=C/C2(C)CCCCC2)C3C)C2(CC2)C1 (mixture of isomers) [Compound B143, (E/Z)-2-(5-((7-(2,6-dimethoxy-4-(1,4,5-trimethyl-6-oxo-1,6-dihydropyridin-3-yl)benzyl)-4,7-diazaspiro[2.5]octan-4-yl)methyl)-1-methyl-1,2,3,4-tetrahydroisoquinoline-2-carbonyl)-3-(1-methylcyclohexyl)acrylonitrile]	10 to 25	70 to 75
COc1cc(-c2cn(C)c(=O)c(C)c2C)cc(OC)c1CN1CCN(Cc2cccc3c2CCN(C(=O)/C(C#N)=C/C2(CF)CC2)C3C)C2(CC2)C1 (mixture of isomers) [Compound B144, (E/Z)-2-(5-((7-(2,6-dimethoxy-4-(1,4,5-trimethyl-6-oxo-1,6-dihydropyridin-3-yl)benzyl)-4,7-diazaspiro[2.5]octan-4-yl)methyl)-1-methyl-1,2,3,4-tetrahydroisoquinoline-2-carbonyl)-3-(1-(fluoromethyl)cyclopropyl)acrylonitrile]	< 1.25	> 75
COc1cc(-c2cn(C)c(=O)c(C)c2C)cc(OC)c1CN1CCN(Cc2cccc3c2CCN(C(=O)/C(C#N)=C/C2(C)CCCC2)C3C)C2(CC2)C1 (mixture of isomers) [Compound B145, (E/Z)-2-(5-((7-(2,6-dimethoxy-4-(1,4,5-trimethyl-6-oxo-1,6-dihydropyridin-3-yl)benzyl)-4,7-diazaspiro[2.5]octan-4-yl)methyl)-1-methyl-1,2,3,4-tetrahydroisoquinoline-2-carbonyl)-3-(1-methylcyclopentyl)acrylonitrile]	< 1.25	> 75
COc1cc(-c2cn(C)c(=O)c(C)c2C)ccc1CN1CCN(Cc2cccc3c2CCN(C(=O)/C(C#N)=C/C(C)(C)C)C3C)C2(CC2)C1 (mixture of isomers) [Compound B147, (E/Z)-2-(5-((7-(2-methoxy-4-(1,4,5-trimethyl-6-oxo-1,6-dihydropyridin-3-yl)benzyl)-4,7-diazaspiro[2.5]octan-4-yl)methyl)-1-methyl-1,2,3,4-tetrahydroisoquinoline-2-carbonyl)-4,4-dimethylpent-2-enenitrile]	1.25 to 10	> 75

Continued, values first:

DC50 [nM]	Dmax [%]	SMILES
1.25 to 10	40 to 70	COc1cc(-c2cn(C)c(=O)c(C)c2C)cc(OC)c1CN1CCN(Cc2cccc3c2CCN(C(=O)/C(C#N)=C/C(C)(C)C)C3C)C2CC21 (mixture of isomers) [Compound B148, (E/Z)-2-(5-((5-(2,6-dimethoxy-4-(1,4,5-trimethyl-6-oxo-1,6-dihydropyridin-3-yl)benzyl)-2,5-diazabicyclo[4.1.0]heptan-2-yl)methyl)-1-methyl-1,2,3,4-tetrahydroisoquinoline-2-carbonyl)-4,4-dimethylpent-2-enenitrile]
< 1.25	> 75	COc1cc(-c2cn(C)c(=O)c(C)c2C)cc(OC)c1CN1CCN(Cc2cccc3c2CCN(C(=O)/C(C#N)=C/C2(C)CCC2)C3C)C2(CC2)C1 (mixture of isomers) [Compound B149, (E/Z)-2-(5-((7-(2,6-dimethoxy-4-(1,4,5-trimethyl-6-oxo-1,6-dihydropyridin-3-yl)benzyl)-4,7-diazaspiro[2.5]octan-4-yl)methyl)-1-methyl-1,2,3,4-tetrahydroisoquinoline-2-carbonyl)-3-(1-methylcyclobutyl)acrylonitrile]
1.25 to 10	> 75	COc1cc(-c2cn(C)c(=O)c(C)c2C)cc(OC)c1CN1CCN(Cc2cccc3c2CCN(C(=O)/C(C#N)=C/C(C)(C)C(F)(F)F)C3C)C2(CC2)C1 (mixture of isomers) [Compound B152, (E/Z)-2-(5-((7-(2,6-dimethoxy-4-(1,4,5-trimethyl-6-oxo-1,6-dihydropyridin-3-yl)benzyl)-4,7-diazaspiro[2.5]octan-4-yl)methyl)-1-methyl-1,2,3,4-tetrahydroisoquinoline-2-carbonyl)-5,5,5-trifluoro-4,4-dimethylpent-2-enenitrile]
< 1.25	> 75	COc1cc(-c2cn(C)c(=O)c(C)c2C)cc(OC)c1CN1CCN(Cc2cccc3c2CCN(C(=O)/C(C#N)=C/C2(C(F)(F)F)CC2)C3C)C2(CC2)C1 (mixture of isomers) [Compound B153, (E/Z)-2-[5-[[7-[[2,6-dimethoxy-4-(1,4,5-trimethyl-6-oxo-3-pyridyl)phenyl]methyl]-4,7-diazaspiro[2.5]octan-4-yl]methyl]-1-methyl-3,4-dihydro-1H-isoquinoline-2-carbonyl]-3-[1-(trifluoromethyl)cyclopropyl]prop-2-enenitrile]
10 to 25	40 to 70	COc1cc(-c2cn(C)c(=O)c(C)c2C)cc(OC)c1CN1CCN(CCc2cccc3c2CCN(C(=O)/C(C#N)=C/C(C)(C)C)C3C)C2(CC2)C1 (mixture of isomers) [Compound B154]
